Reference: the supplement of paper PMC10307832

Legend:
Assay in all cases: relative viability (nuclei count vs DMSO), 5 days (fraction); higher = more cells survive
NCI-H1734 = system: NCI-H1734
Procedure, shortened: (§1)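 A single step with final 0.05% Triton X-100, 1% formaldehyde and 1 ug/ml Hoechst fixed the cells and stained nuclei 5 days after treatment. Lung cancer cell lines in 1536-well plates had been treated by pin tool the day after seeding with one drug alone or a fixed anchor-drug dose plus five library-drug doses (not always all listed) in √10 steps, and nuclei were counted on 4× images. Relative viability is the ratio of nuclei in treated wells to nuclei in vehicle wells, taken as the median of duplicate plates.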

EKVX = system: EKVX
Procedure, shortened: as §1

NCI-H838 = system: NCI-H838
Procedure, shortened: as §1

SK-MES-1 = system: SK-MES-1
Procedure, shortened: as §1

NCI-H520 = system: NCI-H520
Procedure, shortened: as §1

NCI-H1993 = system: NCI-H1993
Procedure, shortened: as §1

ABC-1 = system: ABC-1
Procedure, shortened: as §1

UMC-11 = system: UMC-11
Procedure, shortened: as §1

NCI-H1355 = system: NCI-H1355
Procedure, shortened: as §1

H3255 = system: H3255
Procedure, shortened: as §1

SK-LU-1 = system: SK-LU-1
Procedure, shortened: as §1

NCI-H2009 = system: NCI-H2009
Procedure, shortened: as §1

LC-2-ad = system: LC-2-ad
Procedure, shortened: as §1

NCI-H1650 = system: NCI-H1650
Procedure, shortened: as §1

EMC-BAC-2 = system: EMC-BAC-2
Procedure, shortened: as §1

SW 1573 = system: SW 1573
Procedure, shortened: as §1

NCI-H2087 = system: NCI-H2087
Procedure, shortened: as §1

NCI-H661 = system: NCI-H661
Procedure, shortened: as §1

LU99A = system: LU99A
Procedure, shortened: as §1

CAL-12T = system: CAL-12T
Procedure, shortened: as §1

BEN = system: BEN
Procedure, shortened: as §1

NCI-H2085 = system: NCI-H2085
Procedure, shortened: as §1

NCI-H522 = system: NCI-H522
Procedure, shortened: as §1

NCI-H2342 = system: NCI-H2342
Procedure, shortened: as §1

Q: Which relative viability (NCI-H1734; first compound 0.253 µM) does the source give for `Nc1cccc2c1CN(C1CCC(=O)NC1=O)C2=O` (configuration not stated) [Lenalidomide] + Cc1cc(Nc2cc(N3CCN(C)CC3)nc(Sc3ccc(NC(=O)C4CC4)cc3)n2)n[nH]1 [Tozasertib] (partner 0.1 µM) here?
A: Its relative viability is 0.312.

Q: What about the relative viability (NCI-H1734; first compound 0.8 µM) of the same molecule?
A: The relative viability was 0.271.

Q: What about the relative viability (NCI-H1734; first compound 2.53 µM) of the same molecule?
A: The relative viability was 0.232.

Q: What about the relative viability (NCI-H1734; first compound 8 µM) of the same molecule?
A: Its relative viability is 0.238.

Q: What about the relative viability (EKVX; first compound 0.253 µM) of the same molecule?
A: Its relative viability is 0.396.

Q: What about the relative viability (EKVX; first compound 0.8 µM) of the same molecule?
A: Its relative viability is 0.41.

Q: And the relative viability (EKVX; first compound 2.53 µM)?
A: Its relative viability is 0.415.

Q: And the relative viability (EKVX; first compound 8 µM)?
A: The relative viability was 0.372.

Q: And the relative viability (NCI-H838; first compound 0.253 µM)?
A: Its relative viability is 0.322.

Q: And the relative viability (NCI-H838; first compound 0.8 µM)?
A: Its relative viability is 0.28.

Q: And the relative viability (NCI-H838; first compound 2.53 µM)?
A: Its relative viability is 0.317.

Q: And the relative viability (NCI-H838; first compound 8 µM)?
A: Its relative viability is 0.298.

Q: And the relative viability (SK-MES-1; first compound 0.253 µM)?
A: Its relative viability is 0.865.

Q: And the relative viability (SK-MES-1; first compound 0.8 µM)?
A: Its relative viability is 0.802.

Q: And the relative viability (SK-MES-1; first compound 2.53 µM)?
A: The relative viability was 0.913.

Q: And the relative viability (SK-MES-1; first compound 8 µM)?
A: Its relative viability is 0.98.

Q: What about the relative viability (NCI-H520; first compound 0.253 µM) of the same molecule?
A: The relative viability was 0.429.

Q: And the relative viability (NCI-H520; first compound 0.8 µM)?
A: Its relative viability is 0.461.

Q: What about the relative viability (NCI-H520; first compound 2.53 µM) of the same molecule?
A: Its relative viability is 0.468.

Q: What about the relative viability (NCI-H520; first compound 8 µM) of the same molecule?
A: Its relative viability is 0.374.

Q: What about the relative viability (NCI-H1993; first compound 0.253 µM) of the same molecule?
A: Its relative viability is 0.529.

Q: What about the relative viability (NCI-H1993; first compound 0.8 µM) of the same molecule?
A: The relative viability was 0.572.

Q: What about the relative viability (NCI-H1993; first compound 2.53 µM) of the same molecule?
A: The relative viability was 0.618.

Q: And the relative viability (NCI-H1993; first compound 8 µM)?
A: The relative viability was 0.524.

Q: What about the relative viability (ABC-1; first compound 0.253 µM) of the same molecule?
A: The relative viability was 0.199.

Q: What about the relative viability (ABC-1; first compound 0.8 µM) of the same molecule?
A: Its relative viability is 0.17.

Q: And the relative viability (ABC-1; first compound 2.53 µM)?
A: Its relative viability is 0.184.

Q: And the relative viability (ABC-1; first compound 8 µM)?
A: Its relative viability is 0.175.

Q: And the relative viability (UMC-11; first compound 0.253 µM)?
A: Its relative viability is 0.192.

Q: And the relative viability (UMC-11; first compound 0.8 µM)?
A: Its relative viability is 0.21.

Q: And the relative viability (UMC-11; first compound 2.53 µM)?
A: The relative viability was 0.192.

Q: What about the relative viability (UMC-11; first compound 8 µM) of the same molecule?
A: The relative viability was 0.195.

Q: What about the relative viability (NCI-H1355; first compound 0.253 µM) of the same molecule?
A: Its relative viability is 0.578.

Q: What about the relative viability (NCI-H1355; first compound 2.53 µM) of the same molecule?
A: The relative viability was 0.559.

Q: And the relative viability (NCI-H1355; first compound 8 µM)?
A: The relative viability was 0.59.

Q: And the relative viability (H3255; first compound 0.253 µM)?
A: The relative viability was 0.602.

Q: And the relative viability (H3255; first compound 0.8 µM)?
A: Its relative viability is 0.79.

Q: And the relative viability (H3255; first compound 2.53 µM)?
A: Its relative viability is 0.662.

Q: What about the relative viability (H3255; first compound 8 µM) of the same molecule?
A: The relative viability was 0.536.

Q: What about the relative viability (SK-LU-1; first compound 0.253 µM) of the same molecule?
A: The relative viability was 0.376.

Q: What about the relative viability (SK-LU-1; first compound 0.8 µM) of the same molecule?
A: Its relative viability is 0.304.

Q: And the relative viability (SK-LU-1; first compound 2.53 µM)?
A: The relative viability was 0.399.

Q: And the relative viability (SK-LU-1; first compound 8 µM)?
A: Its relative viability is 0.392.

Q: What about the relative viability (NCI-H2009; first compound 0.253 µM) of the same molecule?
A: The relative viability was 0.776.

Q: What about the relative viability (NCI-H2009; first compound 0.8 µM) of the same molecule?
A: Its relative viability is 0.761.

Q: And the relative viability (NCI-H2009; first compound 2.53 µM)?
A: The relative viability was 0.836.

Q: What about the relative viability (NCI-H2009; first compound 8 µM) of the same molecule?
A: Its relative viability is 0.847.

Q: What about the relative viability (LC-2-ad; first compound 0.253 µM) of the same molecule?
A: Its relative viability is 0.538.

Q: What about the relative viability (LC-2-ad; first compound 2.53 µM) of the same molecule?
A: The relative viability was 0.469.

Q: And the relative viability (LC-2-ad; first compound 8 µM)?
A: Its relative viability is 0.469.

Q: And the relative viability (NCI-H1650; first compound 0.8 µM)?
A: The relative viability was 0.58.

Q: And the relative viability (NCI-H1650; first compound 2.53 µM)?
A: Its relative viability is 0.563.

Q: And the relative viability (NCI-H1650; first compound 8 µM)?
A: Its relative viability is 0.592.

Q: What about the relative viability (EMC-BAC-2; first compound 0.253 µM) of the same molecule?
A: Its relative viability is 0.287.

Q: What about the relative viability (EMC-BAC-2; first compound 0.8 µM) of the same molecule?
A: Its relative viability is 0.272.

Q: What about the relative viability (EMC-BAC-2; first compound 2.53 µM) of the same molecule?
A: The relative viability was 0.298.

Q: What about the relative viability (EMC-BAC-2; first compound 8 µM) of the same molecule?
A: The relative viability was 0.333.

Q: And the relative viability (SW 1573; first compound 0.253 µM)?
A: The relative viability was 0.159.

Q: What about the relative viability (SW 1573; first compound 0.8 µM) of the same molecule?
A: The relative viability was 0.193.

Q: What about the relative viability (SW 1573; first compound 2.53 µM) of the same molecule?
A: The relative viability was 0.276.

Q: And the relative viability (SW 1573; first compound 8 µM)?
A: Its relative viability is 0.198.

Q: And the relative viability (NCI-H2087; first compound 0.253 µM)?
A: The relative viability was 0.24.

Q: What about the relative viability (NCI-H2087; first compound 0.8 µM) of the same molecule?
A: The relative viability was 0.226.

Q: What about the relative viability (NCI-H2087; first compound 2.53 µM) of the same molecule?
A: Its relative viability is 0.277.

Q: What about the relative viability (NCI-H2087; first compound 8 µM) of the same molecule?
A: Its relative viability is 0.242.

Q: What about the relative viability (NCI-H661; first compound 0.253 µM) of the same molecule?
A: The relative viability was 0.379.

Q: What about the relative viability (NCI-H661; first compound 0.8 µM) of the same molecule?
A: The relative viability was 0.368.

Q: And the relative viability (NCI-H661; first compound 2.53 µM)?
A: Its relative viability is 0.335.

Q: What about the relative viability (NCI-H661; first compound 8 µM) of the same molecule?
A: The relative viability was 0.374.

Q: And the relative viability (LU99A; first compound 0.253 µM)?
A: The relative viability was 0.32.

Q: And the relative viability (LU99A; first compound 0.8 µM)?
A: The relative viability was 0.284.

Q: And the relative viability (LU99A; first compound 2.53 µM)?
A: Its relative viability is 0.29.

Q: What about the relative viability (LU99A; first compound 8 µM) of the same molecule?
A: Its relative viability is 0.276.

Q: What about the relative viability (CAL-12T; first compound 0.253 µM) of the same molecule?
A: The relative viability was 0.3.

Q: What about the relative viability (CAL-12T; first compound 0.8 µM) of the same molecule?
A: Its relative viability is 0.302.

Q: What about the relative viability (CAL-12T; first compound 2.53 µM) of the same molecule?
A: The relative viability was 0.463.

Q: And the relative viability (CAL-12T; first compound 8 µM)?
A: Its relative viability is 0.352.

Q: What about the relative viability (BEN; first compound 0.253 µM) of the same molecule?
A: Its relative viability is 0.594.

Q: And the relative viability (BEN; first compound 0.8 µM)?
A: Its relative viability is 0.462.

Q: And the relative viability (BEN; first compound 2.53 µM)?
A: Its relative viability is 0.441.

Q: And the relative viability (BEN; first compound 8 µM)?
A: The relative viability was 0.57.

Q: And the relative viability (NCI-H2085; first compound 0.253 µM)?
A: The relative viability was 0.819.

Q: And the relative viability (NCI-H2085; first compound 0.8 µM)?
A: The relative viability was 0.886.

Q: What about the relative viability (NCI-H2085; first compound 2.53 µM) of the same molecule?
A: Its relative viability is 0.938.

Q: And the relative viability (NCI-H2085; first compound 8 µM)?
A: The relative viability was 0.878.

Q: What about the relative viability (NCI-H522; first compound 0.253 µM) of the same molecule?
A: Its relative viability is 0.574.

Q: What about the relative viability (NCI-H522; first compound 2.53 µM) of the same molecule?
A: Its relative viability is 0.52.

Q: What about the relative viability (NCI-H522; first compound 8 µM) of the same molecule?
A: Its relative viability is 0.511.

Q: What about the relative viability (NCI-H2342; first compound 0.253 µM) of the same molecule?
A: Its relative viability is 0.504.

Q: And the relative viability (NCI-H2342; first compound 0.8 µM)?
A: Its relative viability is 0.49.

Q: And the relative viability (NCI-H2342; first compound 2.53 µM)?
A: The relative viability was 0.649.

Q: What about the relative viability (NCI-H2342; first compound 8 µM) of the same molecule?
A: The relative viability was 0.441.
